ChEMBL document CHEMBL1128045, “Antifungal lipopeptides: Structure-activity relationships of 3-hydroxyglutamine-modified pneumocandin B0 derivatives” (Bioorg Med Chem Lett, 1995)
≈ marks a conversion by molar mass, not a printed value. Numbered stars: 1 amine (or outer) side, 2 acyl side, 3 side chain; on linkers, the order of the positions; unused ones are H or OH. Bridge positions count the residues as written; N and C are the ends. Square brackets hold non-standard residues; d marks the D form. Peptide text beside a SMILES is read from it. * marks the point of attachment. Orn(4R-OH) = O=C([C@H](C[C@@H](O)CN[*:3])N[*:1])[*:2]; hTyr(3R-OH) = N[C@H](C(=O)O)[C@H](O)Cc1ccc(O)cc1; X2 = O=C(O)C[C@@H](O)[C@H](N[*:1])C(=O)[*:2]; Gln(3R-OH) = NC(=O)C[C@@H](O)[C@H](N)C(=O)O; Pro(3S-OH) = O=C(O)[C@H]1NCC[C@@H]1O; Hyp = O=C(O)[C@@H]1C[C@@H](O)CN1; X1 = CCC(C)CC(C)CCCCCCCCC(=O)*

Key:
Candida albicans = experiment: In vitro Fungicidal activity (MFC) against Candida albicans (MY 1055).; assay type: functional
Beta-1,3-glucan synthase = Beta-1,3-glucan synthase (Candida albicans, UniProt O13428); experiment: Tested for inhibition of Beta-1,3-glucan synthase using a crude membrane of Candida albicans (MY 1208).
Candida parapsilosis = experiment: In vitro Fungicidal activity (MFC) against Candida parapsilosis (MY 1010).; assay type: functional; settings: Lodderomyces parapsilosis
[1] = In vivo anti-Candida activity was determined in a mouse model of disseminated candidiasis (TOKA).; assay type: functional

Beta-1,3-glucan synthase, sequence (O13428 whole entry): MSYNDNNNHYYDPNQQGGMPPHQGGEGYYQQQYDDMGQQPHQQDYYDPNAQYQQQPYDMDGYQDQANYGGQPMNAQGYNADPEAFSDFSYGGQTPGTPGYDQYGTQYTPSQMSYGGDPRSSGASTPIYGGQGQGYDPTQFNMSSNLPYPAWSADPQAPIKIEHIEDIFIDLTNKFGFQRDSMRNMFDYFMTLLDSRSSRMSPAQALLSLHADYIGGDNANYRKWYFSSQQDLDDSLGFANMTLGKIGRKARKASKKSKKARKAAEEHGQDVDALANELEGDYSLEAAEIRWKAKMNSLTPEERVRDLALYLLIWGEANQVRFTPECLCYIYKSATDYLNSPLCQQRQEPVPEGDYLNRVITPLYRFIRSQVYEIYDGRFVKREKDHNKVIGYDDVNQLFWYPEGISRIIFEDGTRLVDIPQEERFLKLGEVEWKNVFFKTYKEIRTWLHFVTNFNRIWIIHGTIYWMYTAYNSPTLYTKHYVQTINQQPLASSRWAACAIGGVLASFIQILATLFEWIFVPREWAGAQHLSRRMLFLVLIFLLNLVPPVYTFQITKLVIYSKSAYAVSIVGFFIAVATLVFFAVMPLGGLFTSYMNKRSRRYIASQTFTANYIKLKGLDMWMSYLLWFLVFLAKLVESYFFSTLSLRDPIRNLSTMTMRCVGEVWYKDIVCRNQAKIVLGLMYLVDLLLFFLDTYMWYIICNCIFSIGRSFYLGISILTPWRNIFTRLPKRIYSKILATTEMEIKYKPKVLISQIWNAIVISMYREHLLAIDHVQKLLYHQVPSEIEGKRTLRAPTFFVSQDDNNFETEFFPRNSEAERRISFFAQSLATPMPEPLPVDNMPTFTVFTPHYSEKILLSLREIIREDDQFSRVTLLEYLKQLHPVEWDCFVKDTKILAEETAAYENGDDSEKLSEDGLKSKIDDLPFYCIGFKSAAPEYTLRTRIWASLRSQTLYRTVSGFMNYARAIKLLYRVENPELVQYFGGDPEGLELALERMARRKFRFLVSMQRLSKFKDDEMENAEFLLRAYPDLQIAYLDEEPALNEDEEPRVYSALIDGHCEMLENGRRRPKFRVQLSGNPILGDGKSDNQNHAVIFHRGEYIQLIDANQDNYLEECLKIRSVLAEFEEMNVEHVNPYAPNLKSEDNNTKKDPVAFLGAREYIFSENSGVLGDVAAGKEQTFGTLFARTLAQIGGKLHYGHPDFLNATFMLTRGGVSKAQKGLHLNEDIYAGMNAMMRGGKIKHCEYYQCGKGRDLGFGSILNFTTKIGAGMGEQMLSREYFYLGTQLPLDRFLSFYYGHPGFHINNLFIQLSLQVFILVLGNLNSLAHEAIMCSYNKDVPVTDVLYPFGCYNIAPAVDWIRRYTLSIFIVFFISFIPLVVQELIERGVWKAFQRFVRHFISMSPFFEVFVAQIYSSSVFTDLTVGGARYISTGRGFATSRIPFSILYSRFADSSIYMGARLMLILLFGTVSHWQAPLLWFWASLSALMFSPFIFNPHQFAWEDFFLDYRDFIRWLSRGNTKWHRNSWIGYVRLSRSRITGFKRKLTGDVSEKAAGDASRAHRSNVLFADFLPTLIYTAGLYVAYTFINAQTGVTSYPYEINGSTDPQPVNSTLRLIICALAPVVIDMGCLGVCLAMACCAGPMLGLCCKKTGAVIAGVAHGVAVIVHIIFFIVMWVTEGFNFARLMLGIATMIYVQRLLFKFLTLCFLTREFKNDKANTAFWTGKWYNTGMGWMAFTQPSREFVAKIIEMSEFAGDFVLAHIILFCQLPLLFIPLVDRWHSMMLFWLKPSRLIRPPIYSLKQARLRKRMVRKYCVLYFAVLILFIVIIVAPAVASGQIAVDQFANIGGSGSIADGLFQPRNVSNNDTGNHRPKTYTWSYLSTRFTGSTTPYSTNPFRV

SMILES	MFC (Candida albicans)	IC50 (Beta-1,3-glucan synthase)	MFC (Candida parapsilosis)	ED99.9 [1]
CCC(C)CC(C)CCCCCCCCC(=O)N[C@H]1C[C@@H](O)CNC(=O)[C@@H]2[C@@H](O)CCN2C(=O)[C@H]([C@H](O)CC(=O)O)NC(=O)[C@H]([C@H](O)Cc2ccc(O)cc2)NC(=O)[C@@H]2C[C@@H](O)CN2C(=O)[C@H]([C@@H](C)O)NC1=O (stereo partly drawn) (X1-[Orn(4R-OH)]T[Hyp][hTyr(3R-OH)][X2][Pro(3S-OH)]; lactam 1-C)	0.25 µg/mL (≈ 0.242 µM)	400 nM	8 µg/mL (≈ 7.74 µM)	>6 mg/kg
CCC(C)CC(C)CCCCCCCCC(=O)N[C@H]1C[C@@H](O)CNC(=O)[C@@H]2[C@@H](O)CCN2C(=O)[C@H]([C@H](O)CC(N)=O)NC(=O)[C@H]([C@H](O)Cc2ccc(O)cc2)NC(=O)[C@@H]2C[C@@H](O)CN2C(=O)[C@H]([C@@H](C)O)NC1=O (stereo partly drawn) (X1-[Orn(4R-OH)]T[Hyp][hTyr(3R-OH)][Gln(3R-OH)][Pro(3S-OH)]; lactam 1-C)	0.25 µg/mL (≈ 0.242 µM)	70 nM	2 µg/mL (≈ 1.94 µM)	>6 mg/kg
